Read-outs that look alike come from different tables or passages of the source.
Tests used:
Format in all cases: cell-based
[1] = target: T1, human TAAR1 receptors (Homo sapiens, UniProt Q96RJ0); experiment: TAAR1 Agonism Assay: cAMP HTRF assay for Gs coupled receptor TAAR1 (Euroscreen FAST-0987C); conditions: CHO-K1 cells expressing human TAAR1, cAMP HTRF
T1 construct: host or cells: CHO-K1
T1 sequence (Q96RJ0 1-339): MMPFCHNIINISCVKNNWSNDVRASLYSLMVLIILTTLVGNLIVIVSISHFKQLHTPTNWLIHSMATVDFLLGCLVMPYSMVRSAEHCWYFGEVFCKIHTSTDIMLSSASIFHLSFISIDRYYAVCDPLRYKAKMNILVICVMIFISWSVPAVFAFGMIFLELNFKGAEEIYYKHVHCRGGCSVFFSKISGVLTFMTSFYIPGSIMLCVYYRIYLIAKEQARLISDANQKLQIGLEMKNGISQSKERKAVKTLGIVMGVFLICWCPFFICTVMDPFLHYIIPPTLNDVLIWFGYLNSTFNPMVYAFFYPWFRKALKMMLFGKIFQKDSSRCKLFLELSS
Description: Dose response curves were performed in parallel with the reference compound, tyramine.
For the TAAR1 agonist test (performed in a 384 well plate): 5 μl of cells (about 3,000 cells) were mixed with 5 μl of the test compound diluted in assay buffer and then incubated for about 30 minutes at about room temperature. After addition of the lysis buffer containing cAMP-d2 and anti-cAMP cryptate detection reagents, plates were incubated for about a 1-hour incubation at about room temperature, and fluorescence ratios were measured according to the manufacturer specifications, with the HTRF (Homogeneous Time Resolved Fluorescence) kit (cAMP Gs dynamic kit, Cisbio Bioassays, 62AM4PEJ).
(§1) Compounds were tested at the following nanomolar concentrations, in duplicate: 0.3 nM, 1 nM, 3 nM, 10 nM, 30 nM, 100 nM, 300 nM, 1,000 nM, 3,000 nM, and 10,000 nM.

[2] = target: T2, human 5-HT7 receptor (Homo sapiens, UniProt P34969); experiment: 5HT7 Antagonism Assay (Euroscreen FAST-0499C), cAMP HTRF; conditions: CHO-K1 cells expressing human 5-HT7, reference agonist at EC80, cAMP HTRF
T2 construct: host or cells: CHO-K1
Description: 5HT7 Antagonism Assay Protocol (Euroscreen FAST-0499C)
CHO-K1 cells expressing the human 5-HT7 receptor, grown prior to the test in media without antibiotic, were detached by gentle flushing with PBS-EDTA (5 mM EDTA), recovered by centrifugation and resuspended in assay buffer (Krebs-Ringer HEPES buffer: 5 mM KCl, 1.25 mM MgSO4, 124 mM NaCl, 25 mM HEPES, 13.3 mM Glucose, 1.25 mM KH2PO4, 1.45 mM CaCl2), 0.5 g/l BSA, supplemented with 1 mM IBMX).
Dose response curves were performed in parallel with reference compounds (e.g., 5-carboxamidotryptamine (5-CT)).
For antagonist testing in a 384 well plate: 5 μl of cells (3000 cells) were mixed with 5 μl of a mix of test compound and reference agonist (for a final assay concentration corresponding to its EC80) diluted in assay buffer. The plates were then incubated for about 30 minutes at about room temperature. After addition of the lysis buffer containing cAMP-d2 and anti-cAMP cryptate detection reagents, plates were incubated for about 1 hour at about room temperature, and fluorescence ratios were measured according to the manufacturer's specifications (HTRF kit: cAMP Gs dynamic kit, Cisbio Bioassays, 62AM4PEJ).
as §1

[3] = target: T3, human 5-HT2A receptor (Homo sapiens, UniProt P28223); experiment: 5HT2A Antagonism Assay (Euroscreen FAST-05051), IP-One HTRF
T3 construct: host or cells: CHO-K1
Description: 5HT2A Antagonism Assay Protocol (Euroscreen FAST-05051)
CHO-K1 cells expressing the human 5-HT2A receptor grown to mid-log phase in culture media without antibiotics, were detached with PBS-EDTA, centrifuged, and resuspended in the IP-One Gq kit (Cisbio Bioassays, 62IPAPEC) stimulation buffer.
For antagonist testing in a 384 well plate: 5 μl of cells (20,000 cells) were mixed with 5 μl of a mix of test compound and reference agonist (for a final assay concentration corresponding to its EC80) diluted in stimulation buffer. The plate was incubated for 60 minutes at 37° C. in a humidified atmosphere of 95% air with 5% CO2, then 5 μL of IP1-d2 and anti-IP1 cryptate detection reagents were added to each well, the plates were incubated for about 1 hour at about room temperature. Fluorescence ratios are measured according to the manufacturer's specification (IP-One Gq kit (Cisbio Bioassays, 62IPAPEC).
Dose response curves were performed in parallel with reference compounds (e.g., α-methyl-5-HT. Compounds were tested at the following nanomolar concentrations, in duplicate: 0.3 nM, 1 nM, 3 nM, 10 nM, 30 nM, 100 nM, 300 nM, 1,000 nM, 3,000 nM, and 10,000 nM

[4] = read-out: 5-HT2A (IC50), CHO-K1 cells expressing human 5-HT2A, reference agonist at EC80, IP-One

T2 sequence (P34969 whole entry): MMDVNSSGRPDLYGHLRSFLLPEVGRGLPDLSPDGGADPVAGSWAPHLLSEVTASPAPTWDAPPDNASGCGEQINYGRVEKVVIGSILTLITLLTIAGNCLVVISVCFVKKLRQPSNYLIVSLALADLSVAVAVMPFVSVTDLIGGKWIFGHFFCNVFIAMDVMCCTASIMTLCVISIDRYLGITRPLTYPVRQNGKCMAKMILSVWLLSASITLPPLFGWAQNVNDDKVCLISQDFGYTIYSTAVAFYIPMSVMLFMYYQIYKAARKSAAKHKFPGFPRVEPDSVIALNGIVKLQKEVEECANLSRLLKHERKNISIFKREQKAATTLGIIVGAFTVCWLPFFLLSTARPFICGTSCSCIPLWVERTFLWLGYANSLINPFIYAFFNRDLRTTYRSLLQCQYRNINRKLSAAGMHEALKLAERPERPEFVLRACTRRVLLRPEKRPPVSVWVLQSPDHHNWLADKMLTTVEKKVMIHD
T3 sequence (P28223 whole entry): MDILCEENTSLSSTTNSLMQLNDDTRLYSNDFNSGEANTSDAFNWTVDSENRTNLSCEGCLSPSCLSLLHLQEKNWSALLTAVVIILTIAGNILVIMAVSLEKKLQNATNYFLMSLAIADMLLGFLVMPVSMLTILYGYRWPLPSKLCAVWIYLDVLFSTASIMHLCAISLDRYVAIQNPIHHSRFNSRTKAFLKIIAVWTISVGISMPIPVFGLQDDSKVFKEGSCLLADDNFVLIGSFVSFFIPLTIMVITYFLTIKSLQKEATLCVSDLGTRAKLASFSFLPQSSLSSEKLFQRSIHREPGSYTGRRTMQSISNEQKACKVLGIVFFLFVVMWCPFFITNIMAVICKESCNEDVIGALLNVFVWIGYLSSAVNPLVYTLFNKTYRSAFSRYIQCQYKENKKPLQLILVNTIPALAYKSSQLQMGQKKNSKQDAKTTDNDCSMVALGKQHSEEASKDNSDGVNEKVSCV

Compound	EC50 [1]	other results
CNCC1Cc2ccc(Cl)cc2Oc2cccnc21 (single isomer, unassigned) [Compound 127, (R*)-(7-chloro-10,11-dihydrobenzo[6,7]oxepino[3,2-b]pyridin-11-yl)-N-methylmethanamine]	< 1 µM	IC50 [2]: 1 to 10 µM; IC50 [3, 4]: < 1 µM
NCC1Oc2ccccc2Oc2ncccc21 (single isomer, unassigned) [Compound 47, (R*)-(5H-benzo[2,3][1,4]dioxepino[5,6-b]pyridin-5-yl)methanamine]	1 to 10 µM	IC50 [2]: ≥ 10 µM; IC50 ([3]; CHO-K1 cells expressing human 5-HT2A, reference agonist at EC80, IP-One, read-out: 5-HT2A (IC50)): > 10 µM
CNCC1Oc2ccc(F)cc2Oc2ccccc21 (single isomer, unassigned) [Compound 44, (S*)-1-(7-fluoro-11H-dibenzo[b,e][1,4]dioxepin-11-yl)-N-methylmethanamine]	< 1 µM	IC50 [2]: < 1 µM; IC50 [3, 4]: < 1 µM
NCC1Cc2ccc(F)cc2Oc2ccccc21 (single isomer, unassigned) [Compound 88, (R*)-(3-fluoro-10,11-dihydrodibenzo[b,f]oxepin-10-yl)methanamine]	1 to 10 µM	–
CNCC1Cc2c(C)cccc2Oc2cccnc21 (single isomer, unassigned) [Compound 142, (S*)-(9-methyl-10,11-dihydrobenzo[6,7]oxepino[3,2-b]pyridin-11-yl)-N-methylmethanamine]	1 to 10 µM	–
CCNCC1Cc2ccccc2Oc2cccnc21 (single isomer, unassigned) [Compound 108, (S*)-1-(10,11-dihydrobenzo[6,7]oxepino[3,2-b]pyridin-11-yl)-N-ethylmethanamine]	< 1 µM	–
CNCC1Cc2ncccc2Oc2ccc(Cl)cc21 (single isomer, unassigned) [Compound 169, (R*)-1-(8-chloro-10,11-dihydrobenzo[6,7]oxepino[3,2-b]pyridin-10-yl)-N-methylmethanamine]	> 10 µM	–
NCC1Cc2cc(Br)ccc2Oc2cccnc21 (single isomer, unassigned) [Compound 148, (R*)-(8-bromo-10,11-dihydrobenzo[6,7]oxepino[3,2-b]pyridin-11-yl)methanamine]	< 1 µM	–
CNCC1Cc2ncccc2Oc2c(F)cccc21 (single isomer, unassigned) [Compound 178, (S*)-1-(6-fluoro-10,11-dihydrobenzo[6,7]oxepino[3,2-b]pyridin-10-yl)-N-methylmethanamine]	< 1 µM	–
CN(C)CC1Cc2ccccc2Oc2cccnc21 (single isomer, unassigned) [Compound 110, (S*)-1-(10,11-dihydrobenzo[6,7]oxepino[3,2-b]pyridin-11-yl)-N,N-dimethylmethanamine]	> 10 µM	–
CNCC1Cc2cc(F)ccc2Oc2ccccc21 (single isomer, unassigned) [Compound 99, (S*)-(2-fluoro-10,11-dihydrodibenzo[b,f]oxepin-10-yl)-N-methylmethanamine]	> 10 µM	–
NCC1Cc2ncccc2Oc2cccc(F)c21 (single isomer, unassigned) [Compound 155, (R*)-(9-fluoro-10,11-dihydrobenzo[6,7]oxepino[3,2-b]pyridin-10-yl)methanamine]	1 to 10 µM	–
CNCC1Cc2c(Cl)cccc2Oc2cccnc21 (single isomer, unassigned) [Compound 146, (S*)-(9-chloro-10,11-dihydrobenzo[6,7]oxepino[3,2-b]pyridin-11-yl)-N-methylmethanamine]	> 10 µM	–
NCC1Cc2ncccc2Oc2c(F)cccc21 (single isomer, unassigned) [Compound 175, (R*)-(6-fluoro-10,11-dihydrobenzo[6,7]oxepino[3,2-b]pyridin-10-yl)methanamine]	1 to 10 µM	–
NCC1Cc2ccccc2Oc2ccc(F)cc21 (single isomer, unassigned) [Compound 93, (S*)-(8-fluoro-10,11-dihydrodibenzo[b,f]oxepin-10-yl)methanamine]	1 to 10 µM	–
CNCC1Cc2ncccc2Oc2cc(F)ccc21 (single isomer, unassigned) [Compound 33, (R*)-1-(7-fluoro-10,11-dihydrobenzo[6,7]oxepino[3,2-b]pyridin-10-yl)-N-methylmethanamine]	> 10 µM	–
CNCC1Cc2ncc(F)cc2Oc2ccccc21 (single isomer, unassigned) [Compound 37, (R*)-1-(3-fluoro-10,11-dihydrobenzo[6,7]oxepino[3,2-b]pyridin-10-yl)-N-methylmethanamine]	> 10 µM	–
CNCC1Cc2ncccc2Oc2c(F)cccc21 (single isomer, unassigned) [Compound 177, (R*)-1-(6-fluoro-10,11-dihydrobenzo[6,7]oxepino[3,2-b]pyridin-10-yl)-N-methylmethanamine]	> 10 µM	–
CNC[C@@H]1c2ncccc2Oc2ccccc2[C@@H]1C (stereo in doubt) [Compound 117, ((10R*,11R*)-10-methyl-10,11-dihydrobenzo[6,7]oxepino[3,2-b]pyridin-11-yl)-N-methylmethanamine]	> 10 µM	–
NCC1Cc2ncccc2Oc2cc(F)ccc21 (single isomer, unassigned) [Compound 35, (R*)-(7-fluoro-10,11-dihydrobenzo[6,7]oxepino[3,2-b]pyridin-10-yl)methanamine]	1 to 10 µM	–
NCC1Cc2cc(F)ccc2Oc2ccccc21 (single isomer, unassigned) [Compound 97, (S*)-(2-fluoro-10,11-dihydrodibenzo[b,f]oxepin-10-yl)methanamine]	> 10 µM	–
CNCC1Cc2ncccc2Oc2cccc(F)c21 (single isomer, unassigned) [Compound 157, (R*)-(9-fluoro-10,11-dihydrobenzo[6,7]oxepino[3,2-b]pyridin-10-yl)-N-methylmethanamine]	> 10 µM	–
NCC1Cc2ncccc2Oc2ccc(Cl)cc21 (single isomer, unassigned) [Compound 168, (S*)-(8-chloro-10,11-dihydrobenzo[6,7]oxepino[3,2-b]pyridin-10-yl)methanamine]	1 to 10 µM	–
CNCC1Cc2ccccc2Oc2c(F)cccc21 (single isomer, unassigned) [Compound 103, (S*)-(6-fluoro-10,11-dihydrodibenzo[b,f]oxepin-10-yl)-N-methylmethanamine]	1 to 10 µM	–
C[C@H]1c2ccccc2Oc2cccnc2[C@H]1CN (stereo in doubt) [Compound 113, ((10R*,11R*)-10-methyl-10,11-dihydrobenzo[6,7]oxepino[3,2-b]pyridin-11-yl)methanamine]	> 10 µM	–
CNCC1Cc2c(F)cccc2Oc2cccnc21 (single isomer, unassigned) [Compound 139, (R*)-1-(9-fluoro-10,11-dihydrobenzo[6,7]oxepino[3,2-b]pyridin-11-yl)-N-methylmethanamine]	1 to 10 µM	–
CNCC1Cc2ncccc2Oc2cc(F)ccc21 (single isomer, unassigned) [Compound 34, (S*)-1-(7-fluoro-10,11-dihydrobenzo[6,7]oxepino[3,2-b]pyridin-10-yl)-N-methylmethanamine]	< 1 µM	–

— US20240245658A1, “TAAR1 AND SEROTONIN MODULATORS, AND PHARMACEUTICAL COMPOSITIONS, AND METHODS OF USE THEREOF” (Sunovion Pharmaceuticals Inc., priority 2021, published 2024)
